{
  "source": "patent US12655116B2",
  "about": "“Substituted isophthalic acid diamides” (Bayer Aktiengesellschaft, priority 2020, dated 2026)",
  "key": {"[1]": {"tested_on": "VIOTR", "assay": "Pre-emergence herbicidal action against VIOTR", "type": "in vivo, Viola tricolor", "procedure,_shortened": "(§1)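 Visual rating at 3 weeks vs untreated pots; 0–100% scale, 100% = plants died. Treatment: aqueous WP/EC spray onto covering soil, 600–800 l/ha, 0.2% wetter, seeds in sandy loam.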"}, "[2]": {"tested_on": "VIOTR", "assay": "Post-emergence herbicidal action against VIOTR", "type": "in vivo, Viola tricolor", "procedure,_shortened": "(§2)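 Weeds in sandy loam soil received a post-emergence spray at the one-leaf stage. Compounds were applied as WP or EC in water, 600 to 800 l/ha, with 0.2% wetting agent. Activity in % was judged visually after roughly 3 weeks against untreated plants.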"}, "[3]": {"tested_on": "ABUTH", "assay": "Pre-emergence herbicidal action against ABUTH", "type": "in vivo, Abutilon theophrasti", "procedure,_shortened": "as §1"}, "[4]": {"tested_on": "DIGSA", "assay": "Pre-emergence herbicidal action against DIGSA", "type": "in vivo, Digitaria sanguinalis", "procedure,_shortened": "as §1"}, "[5]": {"tested_on": "ALOMY", "assay": "Pre-emergence herbicidal action against ALOMY", "type": "in vivo, Alopecurus myosuroides", "conditions": "80 g/ha, pre-emergence, scored visually after 3 weeks vs untreated controls (100% = plants have died, 0% = like control plants)", "procedure,_shortened": "as §1"}, "[6]": {"tested_on": "SETVI", "assay": "Pre-emergence herbicidal action against SETVI", "type": "in vivo, Setaria viridis", "conditions": "dosage 80 g/ha", "procedure,_shortened": "as §1"}, "[7]": {"tested_on": "PHBPU", "assay": "Pre-emergence herbicidal action against PHBPU", "type": "in vivo, Pharbitis purpurea", "conditions": "dosage 80 g/ha", "procedure,_shortened": "as §1"}, "[8]": {"tested_on": "SETVI", "assay": "Post-emergence herbicidal action against SETVI", "type": "in vivo, Setaria viridis", "conditions": "dosage 20 g/ha", "procedure,_shortened": "as §2"}, "[9]": {"tested_on": "DIGSA", "assay": "Post-emergence herbicidal action against DIGSA", "type": "in vivo, Digitaria sanguinalis", "conditions": "20 g/ha", "procedure,_shortened": "as §2"}, "[10]": {"tested_on": "VERPE", "assay": "Pre-emergence herbicidal action against VERPE", "type": "in vivo, Veronica persica", "conditions": "dosage 80 g/ha", "procedure,_shortened": "as §1"}, "[11]": {"tested_on": "PHBPU", "assay": "Post-emergence herbicidal action against PHBPU", "type": "in vivo, Pharbitis purpurea", "conditions": "dosage 20 g/ha", "procedure,_shortened": "as §2"}, "[12]": {"tested_on": "POLCO", "assay": "Pre-emergence herbicidal action against POLCO", "type": "in vivo, Polygonum convolvulus", "conditions": "dosage 80 g/ha", "procedure,_shortened": "as §1"}, "[13]": {"tested_on": "AVEFA", "assay": "Pre-emergence herbicidal action against AVEFA", "type": "in vivo, Avena fatua", "conditions": "80 g/ha, pre-emergence", "procedure,_shortened": "as §1"}, "[14]": {"tested_on": "MATIN", "assay": "Post-emergence herbicidal action against MATIN", "type": "in vivo, Matricaria inodora", "conditions": "dosage 20 g/ha", "procedure,_shortened": "as §2"}, "[15]": {"tested_on": "LOLRI", "assay": "Pre-emergence herbicidal action against LOLRI", "type": "in vivo, Lolium rigidum", "conditions": "80 g/ha", "procedure,_shortened": "as §1"}, "[16]": {"tested_on": "STEME", "assay": "Pre-emergence herbicidal action against STEME", "type": "in vivo, Stellaria media", "procedure,_shortened": "as §1"}, "[17]": {"tested_on": "ABUTH", "assay": "Post-emergence herbicidal action against ABUTH", "type": "in vivo, Abutilon theophrasti", "conditions": "visual assessment about 3 weeks after treatment vs untreated controls", "procedure,_shortened": "as §2"}, "[18]": {"tested_on": "AMARE", "assay": "Post-emergence herbicidal action against AMARE", "type": "in vivo, Amaranthus retroflexus", "conditions": "20 g/ha, visual assessment about 3 weeks after treatment, 100% = plants have died, 0% = like control plants", "procedure,_shortened": "as §2"}, "[19]": {"tested_on": "ECHCG", "assay": "Post-emergence herbicidal action against ECHCG", "type": "in vivo, Echinochloa crus-galli", "conditions": "dosage 20 g/ha", "procedure,_shortened": "as §2"}, "[20]": {"tested_on": "AMARE", "assay": "Pre-emergence herbicidal action against AMARE", "type": "in vivo, Amaranthus retroflexus", "procedure,_shortened": "as §1"}, "[21]": {"tested_on": "MATIN", "assay": "Pre-emergence herbicidal action against MATIN", "type": "in vivo, Matricaria inodora", "procedure,_shortened": "as §1"}, "[22]": {"tested_on": "ECHCG", "assay": "Pre-emergence herbicidal action against ECHCG", "type": "in vivo, Echinochloa crus-galli", "conditions": "80 g/ha", "procedure,_shortened": "as §1"}, "[23]": {"conditions": "80 g/ha, scored visually after 3 weeks vs untreated controls (100% = plants have died, 0% = like control plants)"}},
  "data": [
    {"smiles": "CCNC(=O)c1c(C(F)F)ccc(C(=O)Nc2nnnn2CC)c1C", "note": "[Example 2-45]", "values": [
      {"measurement": "Pre-emergence action against VIOTR in %", "setting": "[1]; dosage 20 g/ha", "value": 90, "unit": "%"},
      {"measurement": "Pre-emergence action against VIOTR in %", "setting": "[1]; dosage 80 g/ha", "value": 100, "unit": "%"},
      {"measurement": "Post-emergence action against VIOTR in %", "setting": "[2]; 5 g/ha", "value": 80, "unit": "%"},
      {"measurement": "Post-emergence action against VIOTR in %", "setting": "[2]; 20 g/ha", "value": 100, "unit": "%"},
      {"measurement": "Pre-emergence action against ABUTH (herbicidal activity)", "setting": "[3]; [23]", "value": 100, "unit": "%"},
      {"measurement": "Pre-emergence action against ABUTH (herbicidal activity in percent)", "setting": "[3]; dosage 20 g/ha, scored visually after 3 weeks vs untreated controls, 100% = plants have died, 0% = like control plants", "value": 80, "unit": "%"},
      {"measurement": "Pre-emergence action against DIGSA in %", "setting": "[4]; dosage 20 g/ha", "value": 90, "unit": "%"},
      {"measurement": "Pre-emergence action against DIGSA in %", "setting": "[4]; dosage 80 g/ha", "value": 100, "unit": "%"},
      {"measurement": "Pre-emergence action against ALOMY (herbicidal activity)", "setting": "[5]", "value": 90, "unit": "%"},
      {"measurement": "Pre-emergence action against SETVI in %", "setting": "[6]", "value": 100, "unit": "%"},
      {"measurement": "Pre-emergence action against PHBPU in %", "setting": "[7]", "value": 80, "unit": "%"},
      {"measurement": "Post-emergence action against SETVI in %", "setting": "[8]", "value": 80, "unit": "%"},
      {"measurement": "Post-emergence action against DIGSA", "setting": "[9]", "value": 80, "unit": "%"},
      {"measurement": "Pre-emergence action against VERPE in %", "setting": "[10]", "value": 90, "unit": "%"},
      {"measurement": "Post-emergence action against PHBPU in %", "setting": "[11]", "value": 80, "unit": "%"},
      {"measurement": "Pre-emergence action against POLCO in %", "setting": "[12]", "value": 90, "unit": "%"},
      {"measurement": "Pre-emergence action against AVEFA in %", "setting": "[13]", "value": 100, "unit": "%"},
      {"measurement": "Post-emergence action against MATIN in %", "setting": "[14]", "value": 80, "unit": "%"},
      {"measurement": "Pre-emergence action against LOLRI in %", "setting": "[15]", "value": 80, "unit": "%"},
      {"measurement": "Pre-emergence action against STEME in %", "setting": "[16]; dosage 20 g/ha", "value": 90, "unit": "%"},
      {"measurement": "Pre-emergence action against STEME in %", "setting": "[16]; dosage 80 g/ha", "value": 100, "unit": "%"},
      {"measurement": "Post-emergence action against ABUTH in %", "setting": "[17]; dosage 5 g/ha", "value": 80, "unit": "%"},
      {"measurement": "Post-emergence action against ABUTH in %", "setting": "[17]; dosage 20 g/ha", "value": 80, "unit": "%"},
      {"measurement": "Post-emergence action at 20 g/ha against AMARE in %", "setting": "[18]", "value": 100, "unit": "%"},
      {"measurement": "Post-emergence action against ECHCG in %", "setting": "[19]", "value": 80, "unit": "%"},
      {"measurement": "Pre-emergence action against AMARE in %", "setting": "[20]; 20 g/ha, scored visually after 3 weeks vs untreated controls, 100% = plants have died, 0% = like control plants", "value": 100, "unit": "%"},
      {"measurement": "Pre-emergence action against AMARE in %", "setting": "[20]; [23]", "value": 100, "unit": "%"},
      {"measurement": "Pre-emergence action against MATIN in %", "setting": "[21]; dosage 20 g/ha", "value": 90, "unit": "%"},
      {"measurement": "Pre-emergence action against MATIN in %", "setting": "[21]; dosage 80 g/ha", "value": 100, "unit": "%"},
      {"measurement": "Pre-emergence action against ECHCG in %", "setting": "[22]", "value": 100, "unit": "%"}
    ]}
  ]
}
